In patent publication US6355799B1, “Substituted benzene compounds, process for their preparation, and herbicidal and defoliant compositions containing them” (ISK Americas Incorporated, priority 1997, dated 2002):

Columns and labels:
Assay type in all cases: in vivo
[1] = test system: redroot pigweed (Amaranthus retroflexus, AMARE); assay: Pre-emerge test, greenhouse herbicide activity screening; details: rated 14 days after application, 0 = no damage, 100 = complete death
In short: (§1)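 Rating: 0–100 visual injury, 14 DAA. Application: acetone, 187 l/ha, 15–1000 g ai/ha, flat-fan track sprayer with nozzle 40–45 cm above soil or canopy. Post-emerge runs used 0.25% v/v surfactant on 2–3 leaf plants.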

[2] = test system: barnyardgrass (Echinochloa crus-galli, ECHCG); assay: as above; details: rated 14 days after application, 0 = no damage, 100 = complete death
In short: as §1

[3] = test system: common ragweed (Ambrosia artemisizfolia L., AMBEL); assay: as above; details: rated 14 days after application, 0 = no damage, 100 = complete death
In short: as §1

[4] = test system: green foxtail (Setaria viridis, SETVI); assay: as above; details: rated 14 days after application, 0 = no damage, 100 = complete death
In short: as §1

[5] = test system: ivyleaf morningglory (Ipomoea hederacea, IPOHE); assay: as above; details: rated 14 days after application, 0 = no damage, 100 = complete death
In short: as §1

[6] = test system: johnsongrass (Sorghum halepense, SORHA); assay: as above; details: rated 14 days after application, 0 = no damage, 100 = complete death
In short: as §1

[7] = test system: lambsquarters (Chenopodium album, CHEAL); assay: as above; details: rated 14 days after application, 0 = no damage, 100 = complete death
In short: as §1

[8] = test system: large crabgrass (Digitaria sanguinalis, DIGSA); assay: as above; details: rated 14 days after application, 0 = no damage, 100 = complete death
In short: as §1

[9] = test system: sicklepod (Cassia obtusifolia, CASOB); assay: as above; details: rated 14 days after application, 0 = no damage, 100 = complete death
In short: as §1

[10] = test system: velvetleaf (Abutilon theophrasti, ABUTH); assay: as above; details: rated 14 days after application, 0 = no damage, 100 = complete death
In short: as §1

[11] = test system: field corn (Zea mays L., var. Dekalb 535, CORN); assay: Pre-emerge test, crop safety; details: rated 14 days after application, 0 = no damage, 100 = complete death
In short: (§2)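 Compounds in acetone were track-sprayed at 15-1000 g ai/ha (187 l/ha) on sandy loam pots: pre-emerge one day after seeding, post-emerge at 2-3 leaf stage with 0.25% v/v non-ionic surfactant. Phytotoxicity was rated 14 days later on a 0 (no damage) to 100 (complete death) scale.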

[12] = test system: upland rice (Oryza sp., var. Tebonnet, RICE); assay: Pre-emerge test, crop safety; details: rated 14 days after application, 0 = no damage, 100 = complete death
In short: as §2

[13] = test system: barnyardgrass (Echinochloa crus-galli, ECHCG); assay: Post-emerge test, greenhouse herbicide activity screening; details: post-emerge, 14 days after application, rating scale 0-100
In short: (§3)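 Sandy loam pots; pre-emerge: sown 1 d pre-spray, surface-watered after, then bottom-watered. Post-emerge: sown 8–21 d before, 2–3 leaf stage, + 0.25% v/v NIS, bottom-watered. Acetone, 187 l/ha track spray, 15–1000 g ai/ha. 0–100 injury score, day 14.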

[14] = test system: common ragweed (Ambrosia artemisizfolia L., AMBEL); assay: as above; details: post-emerge, 14 days after application, rating scale 0-100
In short: as §3

[15] = test system: green foxtail (Setaria viridis, SETVI); assay: as above; details: post-emerge, 14 days after application, rating scale 0-100
In short: as §3

[16] = test system: ivyleaf morningglory (Ipomoea hederacea, IPOHE); assay: as above; details: post-emerge, 14 days after application, rating scale 0-100
In short: as §3

[17] = test system: johnsongrass (Sorghum halepense, SORHA); assay: as above; details: post-emerge, 14 days after application, rating scale 0-100
In short: as §3

[18] = test system: lambsquarters (Chenopodium album, CHEAL); assay: as above; details: post-emerge, 14 days after application, rating scale 0-100
In short: as §3

[19] = test system: large crabgrass (Digitaria sanguinalis, DIGSA); assay: as above; details: post-emerge, 14 days after application, rating scale 0-100
In short: as §3

[20] = test system: redroot pigweed (Amaranthus retroflexus, AMARE); assay: as above; details: post-emerge, 14 days after application, rating scale 0-100
In short: as §3

[21] = test system: sicklepod (Cassia obtusifolia, CASOB); assay: as above; details: post-emerge, 14 days after application, rating scale 0-100
In short: as §3

[22] = test system: velvetleaf (Abutilon theophrasti, ABUTH); assay: as above; details: post-emerge, 14 days after application, rating scale 0-100
In short: as §3

[23] = test system: field corn (Zea mays L., var. Dekalb 535, CORN); assay: Post-emerge test, crop safety; details: post-emerge, 14 days after application, rating scale 0-100
In short: (§4)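 Plants grown in 10 cm pots of sandy loam mix received acetone-dissolved compounds through a moving flat-fan nozzle. Doses ranged from 15 to 1000 g ai/ha. Pre-emerge pots were seeded one day earlier, post-emerge pots 8–21 days earlier. Fourteen days on, each pot was graded 0–100 for damage.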

[24] = test system: upland rice (Oryza sp., var. Tebonnet, RICE); assay: Post-emerge test, crop safety; details: post-emerge, 14 days after application, rating scale 0-100
In short: as §4

Compound: COc1c(Cl)cc(F)c(-n2c(=O)cc(C(F)(F)F)n(C)c2=O)c1NC(=O)c1ccc(I)cc1 [2-66]
- Pre-emerge Herbicidal Activity, phytotoxicity rating (0-100), AMARE ([1]; 63 g ai/ha): 100
- Pre-emerge Herbicidal Activity, phytotoxicity rating (0-100), AMARE ([1]; 250 g ai/ha): 100
- Pre-emerge Herbicidal Activity, phytotoxicity rating (0-100), ECHCG ([2]; 63 g ai/ha): 0
- Pre-emerge Herbicidal Activity, phytotoxicity rating (0-100), ECHCG ([2]; 250 g ai/ha): 60
- Pre-emerge Herbicidal Activity, phytotoxicity rating (0-100), AMBEL ([3]; 63 g ai/ha): 0
- Pre-emerge Herbicidal Activity, phytotoxicity rating (0-100), AMBEL ([3]; 250 g ai/ha): 60
- Pre-emerge Herbicidal Activity, phytotoxicity rating (0-100), SETVI ([4]; 63 g ai/ha): 95
- Pre-emerge Herbicidal Activity, phytotoxicity rating (0-100), SETVI ([4]; 250 g ai/ha): 100
- Pre-emerge Herbicidal Activity, phytotoxicity rating (0-100), IPOHE ([5]; 63 g ai/ha): 40
- Pre-emerge Herbicidal Activity, phytotoxicity rating (0-100), IPOHE ([5]; 250 g ai/ha): 80
- Pre-emerge Herbicidal Activity, phytotoxicity rating (0-100), SORHA ([6]; 63 g ai/ha): 20
- Pre-emerge Herbicidal Activity, phytotoxicity rating (0-100), SORHA ([6]; 250 g ai/ha): 95
- Pre-emerge Herbicidal Activity, phytotoxicity rating (0-100), CHEAL ([7]; 63 g ai/ha): 100
- Pre-emerge Herbicidal Activity, phytotoxicity rating (0-100), CHEAL ([7]; 250 g ai/ha): 100
- Pre-emerge Herbicidal Activity, phytotoxicity rating (0-100), DIGSA ([8]; 63 g ai/ha): 60
- Pre-emerge Herbicidal Activity, phytotoxicity rating (0-100), DIGSA ([8]; 250 g ai/ha): 99
- Pre-emerge Herbicidal Activity, phytotoxicity rating (0-100), CASOB ([9]; 63 g ai/ha): 35
- Pre-emerge Herbicidal Activity, phytotoxicity rating (0-100), CASOB ([9]; 250 g ai/ha): 90
- Pre-emerge Herbicidal Activity, phytotoxicity rating (0-100), ABUTH ([10]; 63 g ai/ha): 100
- Pre-emerge Herbicidal Activity, phytotoxicity rating (0-100), ABUTH ([10]; 250 g ai/ha): 100
- Pre-emerge phytotoxicity rating (0-100), crop damage, CORN ([11]; 63 g ai/ha): 0
- Pre-emerge phytotoxicity rating (0-100), crop damage, CORN ([11]; 250 g ai/ha): 15
- Pre-emerge phytotoxicity rating (0-100), crop damage, RICE ([12]; 63 g ai/ha): 10
- Pre-emerge phytotoxicity rating (0-100), crop damage, RICE ([12]; 250 g ai/ha): 60
- phytotoxicity rating ECHCG ([13]; 63 g ai/ha): 70
- phytotoxicity rating ECHCG ([13]; 250 g ai/ha): 50
- phytotoxicity rating AMBEL ([14]; 63 g ai/ha): 100
- phytotoxicity rating AMBEL ([14]; 250 g ai/ha): 75
- phytotoxicity rating SETVI ([15]; 63 g ai/ha): 90
- phytotoxicity rating SETVI ([15]; 250 g ai/ha): 80
- phytotoxicity rating IPOHE ([16]; 63 g ai/ha): 100
- phytotoxicity rating IPOHE ([16]; 250 g ai/ha): 90
- phytotoxicity rating SORHA ([17]; 63 g ai/ha): 10
- phytotoxicity rating SORHA ([17]; 250 g ai/ha): 50
- phytotoxicity rating CHEAL ([18]; 63 g ai/ha): 100
- phytotoxicity rating CHEAL ([18]; 250 g ai/ha): 100
- phytotoxicity rating DIGSA ([19]; 63 g ai/ha): 10
- phytotoxicity rating DIGSA ([19]; 250 g ai/ha): 20
- phytotoxicity rating AMARE ([20]; 63 g ai/ha): 100
- phytotoxicity rating AMARE ([20]; 250 g ai/ha): 100
- phytotoxicity rating CASOB ([21]; 63 g ai/ha): 100
- phytotoxicity rating CASOB ([21]; 250 g ai/ha): 70
- phytotoxicity rating ABUTH ([22]; 63 g ai/ha): 100
- phytotoxicity rating ABUTH ([22]; 250 g ai/ha): 100
- phytotoxicity rating CORN ([23]; 63 g ai/ha): 15
- phytotoxicity rating CORN ([23]; 250 g ai/ha): 70
- phytotoxicity rating RICE ([24]; 63 g ai/ha): 50
- phytotoxicity rating RICE ([24]; 250 g ai/ha): 90

Compound: COc1c(Cl)cc(F)c(-n2c(=O)cc(C(F)(F)F)n(C)c2=O)c1NC(=O)c1ccc(C#N)cc1 [2-67]
- Pre-emerge Herbicidal Activity, phytotoxicity rating (0-100), AMARE ([1]; 63 g ai/ha): 100
- Pre-emerge Herbicidal Activity, phytotoxicity rating (0-100), AMARE ([1]; 250 g ai/ha): 100
- Pre-emerge Herbicidal Activity, phytotoxicity rating (0-100), ECHCG ([2]; 63 g ai/ha): 50
- Pre-emerge Herbicidal Activity, phytotoxicity rating (0-100), ECHCG ([2]; 250 g ai/ha): 95
- Pre-emerge Herbicidal Activity, phytotoxicity rating (0-100), AMBEL ([3]; 63 g ai/ha): 100
- Pre-emerge Herbicidal Activity, phytotoxicity rating (0-100), AMBEL ([3]; 250 g ai/ha): 100
- Pre-emerge Herbicidal Activity, phytotoxicity rating (0-100), SETVI ([4]; 63 g ai/ha): 100
- Pre-emerge Herbicidal Activity, phytotoxicity rating (0-100), SETVI ([4]; 250 g ai/ha): 100
- Pre-emerge Herbicidal Activity, phytotoxicity rating (0-100), IPOHE ([5]; 63 g ai/ha): 100
- Pre-emerge Herbicidal Activity, phytotoxicity rating (0-100), IPOHE ([5]; 250 g ai/ha): 100
- Pre-emerge Herbicidal Activity, phytotoxicity rating (0-100), SORHA ([6]; 63 g ai/ha): 80
- Pre-emerge Herbicidal Activity, phytotoxicity rating (0-100), SORHA ([6]; 250 g ai/ha): 100
- Pre-emerge Herbicidal Activity, phytotoxicity rating (0-100), CHEAL ([7]; 63 g ai/ha): 100
- Pre-emerge Herbicidal Activity, phytotoxicity rating (0-100), CHEAL ([7]; 250 g ai/ha): 100
- Pre-emerge Herbicidal Activity, phytotoxicity rating (0-100), DIGSA ([8]; 63 g ai/ha): 100
- Pre-emerge Herbicidal Activity, phytotoxicity rating (0-100), DIGSA ([8]; 250 g ai/ha): 100
- Pre-emerge Herbicidal Activity, phytotoxicity rating (0-100), CASOB ([9]; 63 g ai/ha): 100
- Pre-emerge Herbicidal Activity, phytotoxicity rating (0-100), CASOB ([9]; 250 g ai/ha): 100
- Pre-emerge Herbicidal Activity, phytotoxicity rating (0-100), ABUTH ([10]; 63 g ai/ha): 100
- Pre-emerge Herbicidal Activity, phytotoxicity rating (0-100), ABUTH ([10]; 250 g ai/ha): 100
- Pre-emerge phytotoxicity rating (0-100), crop damage, CORN ([11]; 63 g ai/ha): 90
- Pre-emerge phytotoxicity rating (0-100), crop damage, CORN ([11]; 250 g ai/ha): 99
- Pre-emerge phytotoxicity rating (0-100), crop damage, RICE ([12]; 63 g ai/ha): 90
- Pre-emerge phytotoxicity rating (0-100), crop damage, RICE ([12]; 250 g ai/ha): 90
- phytotoxicity rating ECHCG ([13]; 63 g ai/ha): 0
- phytotoxicity rating ECHCG ([13]; 250 g ai/ha): 40
- phytotoxicity rating AMBEL ([14]; 63 g ai/ha): 100
- phytotoxicity rating AMBEL ([14]; 250 g ai/ha): 100
- phytotoxicity rating SETVI ([15]; 63 g ai/ha): 20
- phytotoxicity rating SETVI ([15]; 250 g ai/ha): 30
- phytotoxicity rating IPOHE ([16]; 63 g ai/ha): 99
- phytotoxicity rating IPOHE ([16]; 250 g ai/ha): 100
- phytotoxicity rating SORHA ([17]; 63 g ai/ha): 0
- phytotoxicity rating SORHA ([17]; 250 g ai/ha): 80
- phytotoxicity rating CHEAL ([18]; 63 g ai/ha): 100
- phytotoxicity rating CHEAL ([18]; 250 g ai/ha): 100
- phytotoxicity rating DIGSA ([19]; 63 g ai/ha): 0
- phytotoxicity rating DIGSA ([19]; 250 g ai/ha): 40
- phytotoxicity rating AMARE ([20]; 63 g ai/ha): 100
- phytotoxicity rating AMARE ([20]; 250 g ai/ha): 100
- phytotoxicity rating CASOB ([21]; 63 g ai/ha): 100
- phytotoxicity rating CASOB ([21]; 250 g ai/ha): 100
- phytotoxicity rating ABUTH ([22]; 63 g ai/ha): 100
- phytotoxicity rating ABUTH ([22]; 250 g ai/ha): 100
- phytotoxicity rating CORN ([23]; 63 g ai/ha): 20
- phytotoxicity rating CORN ([23]; 250 g ai/ha): 95
- phytotoxicity rating RICE ([24]; 63 g ai/ha): 70
- phytotoxicity rating RICE ([24]; 250 g ai/ha): 80
